# From ChEMBL document CHEMBL1201862, “PubChem BioAssay data set” (2004)
# Activity calls are given as the source filed them.
# Key:
# Cysteine protease ATG4B = target: T1, Cysteine protease ATG4B (Homo sapiens, UniProt Q9Y4P1); assay type: functional;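 also: Fluorescence-based dose-response confirmation assay measuring inhibition of ATG4B activity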
# T1 sequence (Q9Y4P1 whole entry): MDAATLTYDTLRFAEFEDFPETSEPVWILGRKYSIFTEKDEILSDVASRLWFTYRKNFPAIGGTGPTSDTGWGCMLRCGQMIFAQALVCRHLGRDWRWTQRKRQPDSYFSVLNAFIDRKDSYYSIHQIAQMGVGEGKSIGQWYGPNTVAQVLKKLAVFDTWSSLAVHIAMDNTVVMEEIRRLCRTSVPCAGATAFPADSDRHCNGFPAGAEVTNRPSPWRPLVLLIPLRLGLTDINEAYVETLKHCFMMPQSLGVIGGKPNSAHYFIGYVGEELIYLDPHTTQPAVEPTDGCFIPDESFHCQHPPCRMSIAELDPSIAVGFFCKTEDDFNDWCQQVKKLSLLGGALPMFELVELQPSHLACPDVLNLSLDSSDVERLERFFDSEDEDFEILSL
# [1] = NIH-3T3 fibroblast cytotoxicity, dose response, cytotoxicity control, cell-based, fluorescence, Alamar Blue, secondary assay (AID 2327); assay type: functional;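 also: NIH-3T3 mouse fibroblasts cultured with fluconazole at 8 µg/mL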
# [2] = fluconazole-exposed Candida albicans growth modulators – fluorescence, retest, confirmation (AID 2467); assay type: functional, cell-based
# [3] = Counterscreen for AddAB inhibitors: absorbance-based bacterial cell-based high throughput dose response assay for inhibitors of bacterial viability. [Related pubchem assays (depositor defined):AID435030, AID449728, AID449731, AID488942, AID488955, AID488956]; assay type: functional
# [4] = viability loss in HEK293 cells – cell-based, plate reader, cherry-picked samples, cytotoxicity control, dose response (AID 743446); assay type: functional
# [5] = cytotoxicity toward MDA-MB-231 breast cancer cells – cell-based, CellTiter-Glo luminescence, cherry-pick, cytotoxicity control for RAD54 inhibitor project, dose response (AID 651692); assay type: functional
# [6] = target: Protein disulfide-isomerase A6 (Homo sapiens, UniProt Q15084); assay: reduced insulin turbidity driven by ERp5 (PDIA6) – biochemical, absorbance 650 nm, cherry-picked samples, dose response (AID 720566)
# Protein disulfide-isomerase A6, sequence (Q15084 whole entry): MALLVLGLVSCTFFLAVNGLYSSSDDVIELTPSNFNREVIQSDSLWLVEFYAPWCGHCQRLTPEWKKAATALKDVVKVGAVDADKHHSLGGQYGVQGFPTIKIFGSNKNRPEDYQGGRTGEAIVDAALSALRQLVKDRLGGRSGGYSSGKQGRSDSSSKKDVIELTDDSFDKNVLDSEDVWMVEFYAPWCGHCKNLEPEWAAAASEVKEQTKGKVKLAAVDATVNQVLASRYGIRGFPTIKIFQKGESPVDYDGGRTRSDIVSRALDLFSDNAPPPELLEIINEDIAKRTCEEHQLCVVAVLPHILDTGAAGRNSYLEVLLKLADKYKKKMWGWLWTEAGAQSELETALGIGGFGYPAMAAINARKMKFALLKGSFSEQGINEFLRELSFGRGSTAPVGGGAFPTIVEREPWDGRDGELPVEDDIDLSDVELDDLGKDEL
# [7] = reduced cellular PGC1a acetyl-lysine signal – cell-based, cherry-picked samples, dose response (AID 720514); assay type: functional;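 also: potency may reflect raised or lowered acetylation signal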
# [8] = target: Tyrosyl-DNA phosphodiesterase 2 (Homo sapiens, UniProt O95551); assay: potency against TDP2 phosphodiesterase activity – biochemical, epi absorbance, IC50, dose response (AID 743297)
# Tyrosyl-DNA phosphodiesterase 2, sequence (O95551 whole entry): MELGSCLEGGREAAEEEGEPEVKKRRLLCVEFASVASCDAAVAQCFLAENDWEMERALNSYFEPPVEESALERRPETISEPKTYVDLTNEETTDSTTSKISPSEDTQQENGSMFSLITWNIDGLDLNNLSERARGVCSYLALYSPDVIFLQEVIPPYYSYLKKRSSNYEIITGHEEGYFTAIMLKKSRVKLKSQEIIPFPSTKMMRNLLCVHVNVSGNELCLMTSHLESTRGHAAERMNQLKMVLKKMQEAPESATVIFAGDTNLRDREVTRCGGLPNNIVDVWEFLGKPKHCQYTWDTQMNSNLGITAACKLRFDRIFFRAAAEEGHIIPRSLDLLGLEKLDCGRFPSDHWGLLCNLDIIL
# [9] = target: T2, 1-phosphatidylinositol 4,5-bisphosphate phosphodiesterase gamma-1 (Homo sapiens, UniProt P19174); assay: Counterscreen for inhibitors of phospholipase C isozymes (PLC-B3): Fluorescence-based biochemical high throughput dose response assay to identify inhibitors of phospholipase C isozymes (PLC-gamma1).
# T2 sequence (P19174 whole entry): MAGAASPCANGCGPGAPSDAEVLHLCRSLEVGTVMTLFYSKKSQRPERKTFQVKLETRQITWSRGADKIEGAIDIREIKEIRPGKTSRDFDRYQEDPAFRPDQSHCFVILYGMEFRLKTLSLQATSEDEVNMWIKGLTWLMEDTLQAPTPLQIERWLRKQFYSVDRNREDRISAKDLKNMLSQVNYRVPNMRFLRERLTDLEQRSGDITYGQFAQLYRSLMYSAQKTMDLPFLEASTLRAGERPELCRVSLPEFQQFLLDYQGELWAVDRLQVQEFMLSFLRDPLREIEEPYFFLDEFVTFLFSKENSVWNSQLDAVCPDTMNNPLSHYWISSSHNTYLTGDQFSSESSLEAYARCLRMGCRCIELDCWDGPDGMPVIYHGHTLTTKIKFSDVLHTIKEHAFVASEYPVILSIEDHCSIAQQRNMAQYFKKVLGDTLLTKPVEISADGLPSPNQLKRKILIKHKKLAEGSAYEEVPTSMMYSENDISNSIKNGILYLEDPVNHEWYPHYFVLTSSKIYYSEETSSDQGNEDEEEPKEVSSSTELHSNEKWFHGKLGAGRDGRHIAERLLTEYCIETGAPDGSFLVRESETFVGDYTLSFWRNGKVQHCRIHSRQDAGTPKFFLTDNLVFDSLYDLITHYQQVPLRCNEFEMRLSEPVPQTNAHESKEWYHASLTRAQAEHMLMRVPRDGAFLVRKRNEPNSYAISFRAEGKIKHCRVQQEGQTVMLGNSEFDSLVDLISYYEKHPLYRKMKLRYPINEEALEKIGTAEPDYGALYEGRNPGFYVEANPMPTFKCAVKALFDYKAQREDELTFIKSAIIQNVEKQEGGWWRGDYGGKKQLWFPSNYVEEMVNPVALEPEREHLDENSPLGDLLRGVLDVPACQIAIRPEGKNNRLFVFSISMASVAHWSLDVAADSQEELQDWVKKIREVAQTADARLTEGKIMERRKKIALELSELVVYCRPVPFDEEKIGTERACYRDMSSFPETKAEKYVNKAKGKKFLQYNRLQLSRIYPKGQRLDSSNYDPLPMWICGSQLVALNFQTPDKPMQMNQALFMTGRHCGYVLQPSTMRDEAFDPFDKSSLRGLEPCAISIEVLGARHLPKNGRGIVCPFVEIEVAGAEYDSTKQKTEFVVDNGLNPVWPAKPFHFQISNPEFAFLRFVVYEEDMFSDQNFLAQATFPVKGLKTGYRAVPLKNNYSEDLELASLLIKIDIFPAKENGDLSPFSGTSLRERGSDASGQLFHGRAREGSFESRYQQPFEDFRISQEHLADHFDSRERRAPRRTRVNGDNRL
# [10] = target: Lysine-specific demethylase 4C (Homo sapiens, UniProt Q9H3R0); assay: inhibition of JMJD2C H3K9me3 demethylation – biochemical, DELFIA europium, cherry-picked samples, dose response (AID 488835); assay type: functional
# Lysine-specific demethylase 4C, sequence (Q9H3R0 whole entry): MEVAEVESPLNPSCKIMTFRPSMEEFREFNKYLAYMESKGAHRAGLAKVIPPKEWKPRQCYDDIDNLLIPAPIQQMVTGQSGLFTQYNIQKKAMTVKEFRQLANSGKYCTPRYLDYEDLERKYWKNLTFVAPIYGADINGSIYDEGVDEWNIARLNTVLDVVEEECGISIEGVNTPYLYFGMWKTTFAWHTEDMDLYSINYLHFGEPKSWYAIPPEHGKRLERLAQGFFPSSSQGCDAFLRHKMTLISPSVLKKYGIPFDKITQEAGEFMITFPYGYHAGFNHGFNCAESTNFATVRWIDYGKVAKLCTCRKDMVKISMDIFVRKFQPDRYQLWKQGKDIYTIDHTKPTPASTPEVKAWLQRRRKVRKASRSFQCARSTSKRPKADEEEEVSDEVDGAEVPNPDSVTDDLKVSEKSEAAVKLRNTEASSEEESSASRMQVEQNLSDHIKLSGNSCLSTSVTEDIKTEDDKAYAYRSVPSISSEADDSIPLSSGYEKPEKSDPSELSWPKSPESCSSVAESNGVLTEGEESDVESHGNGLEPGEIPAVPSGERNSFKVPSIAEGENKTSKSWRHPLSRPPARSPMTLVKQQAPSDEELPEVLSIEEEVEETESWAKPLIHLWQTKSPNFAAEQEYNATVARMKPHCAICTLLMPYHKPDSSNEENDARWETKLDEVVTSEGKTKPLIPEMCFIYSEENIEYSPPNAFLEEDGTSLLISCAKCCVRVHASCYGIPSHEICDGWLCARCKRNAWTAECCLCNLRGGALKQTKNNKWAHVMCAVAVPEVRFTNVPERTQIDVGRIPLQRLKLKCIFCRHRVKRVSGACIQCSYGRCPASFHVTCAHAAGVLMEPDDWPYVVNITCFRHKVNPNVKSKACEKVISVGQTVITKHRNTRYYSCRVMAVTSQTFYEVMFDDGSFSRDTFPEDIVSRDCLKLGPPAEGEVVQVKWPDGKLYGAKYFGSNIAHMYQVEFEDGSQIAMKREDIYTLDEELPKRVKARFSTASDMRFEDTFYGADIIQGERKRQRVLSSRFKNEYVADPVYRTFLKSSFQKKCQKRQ
# [11] = target: Dual specificity protein phosphatase 6 (Rattus norvegicus, UniProt Q64346); assay: inhibition of rat DUSP6 enzyme activity – biochemical, in vitro, primary screen (AID 425)
# Dual specificity protein phosphatase 6, sequence (Q64346 whole entry): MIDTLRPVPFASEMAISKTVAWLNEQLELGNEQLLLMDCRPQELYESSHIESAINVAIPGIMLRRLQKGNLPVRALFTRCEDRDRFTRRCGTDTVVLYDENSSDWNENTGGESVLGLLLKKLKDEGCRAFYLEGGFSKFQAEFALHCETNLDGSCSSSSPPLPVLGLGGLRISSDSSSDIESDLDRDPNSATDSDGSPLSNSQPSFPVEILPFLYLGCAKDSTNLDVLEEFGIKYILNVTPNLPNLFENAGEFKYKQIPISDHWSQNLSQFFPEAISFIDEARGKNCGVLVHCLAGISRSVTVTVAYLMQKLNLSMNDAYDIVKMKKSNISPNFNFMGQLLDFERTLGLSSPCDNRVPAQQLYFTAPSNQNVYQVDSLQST
# [12] = target: Lysine-specific demethylase 4A (Homo sapiens, UniProt O75164); assay: inhibition of JMJD2A H3K9me3 demethylation – biochemical, DELFIA europium, cherry-picked samples, selectivity assay for GASC-1 inhibitor project, dose response (AID 488840)
# Lysine-specific demethylase 4A, sequence (O75164 whole entry): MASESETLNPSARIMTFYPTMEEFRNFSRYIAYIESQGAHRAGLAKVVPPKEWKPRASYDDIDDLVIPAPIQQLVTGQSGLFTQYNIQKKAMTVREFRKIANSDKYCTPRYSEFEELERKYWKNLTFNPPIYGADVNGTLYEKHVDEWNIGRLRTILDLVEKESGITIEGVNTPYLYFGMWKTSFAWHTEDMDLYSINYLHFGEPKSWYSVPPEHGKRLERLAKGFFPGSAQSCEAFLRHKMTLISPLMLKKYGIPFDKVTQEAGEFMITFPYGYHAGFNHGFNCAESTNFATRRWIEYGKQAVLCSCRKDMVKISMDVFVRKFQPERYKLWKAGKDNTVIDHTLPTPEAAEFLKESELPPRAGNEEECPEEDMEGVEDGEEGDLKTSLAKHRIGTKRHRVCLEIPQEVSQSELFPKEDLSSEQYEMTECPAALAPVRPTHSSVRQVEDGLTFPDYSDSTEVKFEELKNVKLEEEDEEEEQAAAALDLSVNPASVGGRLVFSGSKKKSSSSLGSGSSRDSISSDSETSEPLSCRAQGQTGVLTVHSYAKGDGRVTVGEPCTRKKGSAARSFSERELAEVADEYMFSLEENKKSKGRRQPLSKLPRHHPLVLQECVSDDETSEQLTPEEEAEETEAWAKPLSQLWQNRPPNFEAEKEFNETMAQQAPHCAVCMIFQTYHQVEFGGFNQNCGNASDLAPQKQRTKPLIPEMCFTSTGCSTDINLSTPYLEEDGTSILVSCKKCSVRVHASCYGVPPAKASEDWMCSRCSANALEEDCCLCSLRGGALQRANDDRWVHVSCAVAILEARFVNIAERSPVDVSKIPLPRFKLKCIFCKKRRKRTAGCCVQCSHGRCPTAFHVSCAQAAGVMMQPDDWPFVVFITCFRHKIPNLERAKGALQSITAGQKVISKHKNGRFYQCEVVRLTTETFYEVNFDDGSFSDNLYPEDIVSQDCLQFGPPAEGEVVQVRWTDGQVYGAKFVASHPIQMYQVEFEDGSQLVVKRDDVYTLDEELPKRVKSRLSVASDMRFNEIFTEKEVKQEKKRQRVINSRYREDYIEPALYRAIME
# [13] = HEK-293T viability loss after treatment – luminescence, T-cell screen hits, cytotoxicity control for TCR NF-kB inhibitor project, dose response (AID 489026); assay type: functional, cell-based;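 also: cells exposed to compound about 14 hours before the viability readout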
# [14] = Intein inhibitors as potential Tuberculosis drugs, a cytotoxicity screen. [Related pubchem assays (depositor defined):AID2221, AID2223, AID434968, AID435010, AID449749, AID449750, AID489010]; assay type: functional
# cells = assay type: functional, cell-based; details: HEK-CNG
# Cytochrome P450 2C19 = Cytochrome P450 2C19 (Homo sapiens, UniProt P33261); assay: Cytochrome panel assay with activity outcomes. Panel member name: p450-cyp2c19 Compounds with AC50 equal or less than 10 uM are considered active; assay type: functional; details: read-out: AC50
# Cytochrome P450 2C19, sequence (P33261 whole entry): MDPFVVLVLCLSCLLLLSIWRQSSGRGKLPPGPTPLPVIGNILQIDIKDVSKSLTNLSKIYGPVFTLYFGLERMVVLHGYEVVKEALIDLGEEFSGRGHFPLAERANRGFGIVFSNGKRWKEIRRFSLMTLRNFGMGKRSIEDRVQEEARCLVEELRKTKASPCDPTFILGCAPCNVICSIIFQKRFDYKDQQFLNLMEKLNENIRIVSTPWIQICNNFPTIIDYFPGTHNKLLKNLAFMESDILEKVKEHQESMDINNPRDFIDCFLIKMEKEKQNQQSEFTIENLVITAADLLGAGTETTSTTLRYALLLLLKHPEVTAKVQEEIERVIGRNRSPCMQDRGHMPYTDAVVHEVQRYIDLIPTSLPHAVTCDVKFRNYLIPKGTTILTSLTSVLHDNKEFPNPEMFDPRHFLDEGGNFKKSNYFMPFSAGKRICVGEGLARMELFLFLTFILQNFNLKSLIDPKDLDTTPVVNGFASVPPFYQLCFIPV
# [15] = general mammalian cell viability loss – activator set, cherry-pick, cytotoxicity control for miR-122 modulator project, dose response (AID 720690); assay type: functional, cell-based;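 also: HEK293T human cells scored for general mammalian cytotoxicity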
# [16] = DRD fibroblast viability loss – cell-based, non-viral oncogenic, luminescence, dose response (AID 1934); assay type: functional; details: Homo sapiens
# BJ = assay: growth inhibition of engineered Ras-driven BJ cells – cell-based, alamar blue fluorescence, cherrypicked samples, dose response (AID 2631); assay type: functional; details: Homo sapiens;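 also: confirmatory dose-response assay in RAS-dependent BJ fibroblasts engineered with TERT, LT and ST, with cytotoxicity read by fluorescence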
# 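For CC50 in this document: cells exposed to compound for 72 hours before luminescence readout.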
structure (smiles),measurement,setting,value
COc1ccc(NS(=O)(=O)c2ccc3c(c2)[C@H]2C=CC[C@H]2[C@@H](c2ccc(C(=O)O)cc2)N3)cc1,IC50,Cysteine protease ATG4B,5.28 µM (active)
CCC(=O)NC(c1ccc(OC)cc1)c1cc(Cl)c2cccnc2c1O (stereo not given),EC50,[1],12.6 µM (inconclusive)
same,EC50,[2],769 nM (active)
same,IC50,[3],> 119 µM (inactive)
Cn1nc(-c2ccccn2)nc2c(=O)n(C)c(=O)nc1-2,AC50,[4],21.2 µM (active)
same,AC50,[5],3.79 µM (active)
same,AC50,[6],1.49 µM (active)
same,AC50,[7],3.15 µM (active)
same,IC50,[8],210 nM (active)
same,IC50,[9],> 4.54 µM (active)
same,AC50,[10],873 nM (active)
same,IC50,[11],< 1.23 µM (not active)
same,AC50,[12],5.1 µM (active)
same,IC50,[13],4.26 µM (active)
same,CC50,[14],> 40 µM (active)
same,IC50,Cysteine protease ATG4B,2.07 µM (active)
CCCCCCCCCCn1c2c(c(=N)c3c1CCC3)CCC2,EC50,[1],26.1 µM (active)
same,EC50,cells,15.8 µM (inactive)
same,AC50,Cytochrome P450 2C19,28.2 µM (inconclusive)
same,AC50,[15],6.56 µM (active)
same,EC50,[16],3.44 µM (inconclusive)
same,EC50,[2],779 nM (active)
same,EC50,BJ,706 nM (active)
same,IC50,[13],38.4 µM (inactive)
same,CC50,[14],8.51 µM (active)
